Test results reported in ChEMBL document CHEMBL1148648, “Novel 1,3-disubstituted 8-(1-benzyl-1H-pyrazol-4-yl) xanthines: high affinity and selective A2B adenosine receptor antagonists” (J Med Chem, 2006).
pKi: −log10 of the molar value.

What was measured:
Adenosine receptor A2b = molecular target: T1, Adenosine receptor A2b (Homo sapiens, UniProt P29275); test: Displacement of [3H]ZM241385 from human adenosine A2b receptor expressed in HEK cells; format: cell-based, HEK293
T1 sequence (P29275 whole entry): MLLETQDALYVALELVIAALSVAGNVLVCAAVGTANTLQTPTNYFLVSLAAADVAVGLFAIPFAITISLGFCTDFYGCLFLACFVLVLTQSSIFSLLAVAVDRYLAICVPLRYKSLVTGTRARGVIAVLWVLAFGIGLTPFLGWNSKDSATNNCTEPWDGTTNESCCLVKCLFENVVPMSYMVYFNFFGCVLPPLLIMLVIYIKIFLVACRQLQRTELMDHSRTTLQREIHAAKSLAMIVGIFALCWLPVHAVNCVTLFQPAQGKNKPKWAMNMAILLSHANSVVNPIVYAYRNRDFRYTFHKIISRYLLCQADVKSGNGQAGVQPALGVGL

Adenosine receptor A2a = Adenosine receptor A2a (Homo sapiens, UniProt P29274); test: Displacement of [3H]ZM-241385 from human adenosine A2a receptor expressed in HEK cells; format: cell-based, HEK293
Adenosine receptor A1 = molecular target: T2, Adenosine receptor A1 (Homo sapiens, UniProt P30542); test: Displacement of [3H]CPX from human adenosine A1 receptor expressed in CHO cells
T2 sequence (P30542 whole entry): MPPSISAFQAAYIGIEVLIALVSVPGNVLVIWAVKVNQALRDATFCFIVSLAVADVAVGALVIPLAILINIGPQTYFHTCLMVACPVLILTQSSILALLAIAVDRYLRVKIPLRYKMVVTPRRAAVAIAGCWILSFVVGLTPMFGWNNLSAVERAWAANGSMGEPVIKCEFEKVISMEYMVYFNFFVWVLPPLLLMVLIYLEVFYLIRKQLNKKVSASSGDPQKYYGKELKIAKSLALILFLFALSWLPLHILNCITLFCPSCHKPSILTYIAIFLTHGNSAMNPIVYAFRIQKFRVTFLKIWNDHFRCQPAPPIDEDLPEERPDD

[1] = molecular target: Adenosine receptors; A1 & A2b (Homo sapiens) (UniProt P30542+P29275); test: Selectivity for human adenosine A2b receptor over adenosine A1 receptor; format: protein assay
[2] = molecular target: Adenosine A2 receptor (Homo sapiens) (UniProt P29275+P29274); test: Selectivity for human adenosine A2b receptor over adenosine A2a receptor; format: protein assay

Adenosine receptor A2a, sequence (P29274 whole entry): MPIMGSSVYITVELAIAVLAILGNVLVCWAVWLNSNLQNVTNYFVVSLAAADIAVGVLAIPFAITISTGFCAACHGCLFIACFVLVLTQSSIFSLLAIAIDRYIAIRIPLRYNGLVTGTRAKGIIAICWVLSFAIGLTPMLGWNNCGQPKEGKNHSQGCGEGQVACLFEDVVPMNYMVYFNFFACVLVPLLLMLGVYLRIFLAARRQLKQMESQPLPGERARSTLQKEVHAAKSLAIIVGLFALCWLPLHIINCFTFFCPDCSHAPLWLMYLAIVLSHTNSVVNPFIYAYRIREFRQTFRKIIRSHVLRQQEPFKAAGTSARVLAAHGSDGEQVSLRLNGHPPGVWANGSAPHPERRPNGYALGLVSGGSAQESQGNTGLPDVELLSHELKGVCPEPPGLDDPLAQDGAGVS

Row | pKi (Adenosine receptor A2b) | pKi (Adenosine receptor A2a) | pKi (Adenosine receptor A1) | Ratio Ki [1] | Ratio Ki [2] | SMILES
1 | – | – | – | 2 | 2 | CCCn1c(=O)c2nc(-c3cnn(-c4ccccc4)c3)[nH]c2n(CCC)c1=O
2 | 6.19 | – | – | – | – | CCCn1c(=O)c2[nH]c(-c3cnn(Cc4ccc(F)c(C(F)(F)F)c4)c3)nc2n(CCC)c1=O
3 | < 5.39 | – | – | – | – | CCCn1c(=O)c2nc(-c3cnn(-c4ccccc4)c3C)[nH]c2n(CCC)c1=O
4 | < 5.24 | – | – | – | – | CCCn1c(=O)c2c(nc(-n3cccn3)n2Cc2ccccc2)n(CCC)c1=O
5 | < 5.18 | – | – | – | – | CCCn1c(=O)c2nc(-c3cnn(-c4ccccc4)c3C(F)(F)F)[nH]c2n(CCC)c1=O
6 | 7.43 | 6.64 | 7.36 | – | – | CCCn1c(=O)c2[nH]c(-c3cnn(Cc4ccccc4C(F)(F)F)c3)nc2n(CCC)c1=O
7 | < 5.24 | – | – | – | – | CCCn1c(=O)c2c(nc(-n3cc(I)cn3)n2Cc2ccccc2)n(CCC)c1=O
8 | 6.62 | – | – | – | – | CCCn1c(=O)c2[nH]c(-c3cnn(Cc4cccc(F)c4F)c3)nc2n(CCC)c1=O
9 | < 5.18 | – | – | – | – | CCCn1c(=O)c2[nH]c(-c3cnn(-c4ccc(Cl)cc4)c3C(F)(F)F)nc2n(CCC)c1=O
10 | 7.13 | 6.24 | 7.77 | 0.2 | 7 | CCCn1c(=O)c2nc(-c3cnn(CCc4ccccc4)c3)[nH]c2n(CCC)c1=O
11 | 6.51 | 6.25 | 6.11 | – | – | CCCn1c(=O)c2[nH]c(-c3cnn(-c4ccccc4)c3)nc2n(CCC)c1=O
12 | 7.70 | 7.31 | 7.23 | 3 | – | CCCn1c(=O)c2nc(-c3cnn(Cc4ccccc4Cl)c3)[nH]c2n(CCC)c1=O
13 | < 5.18 | – | – | – | – | CCCc1c(-c2nc3c([nH]2)c(=O)n(CCC)c(=O)n3CCC)cnn1-c1ccccc1
14 | 7.55 | 7.22 | 7.72 | – | – | CCCn1c(=O)c2[nH]c(-c3cnn(Cc4ccccc4F)c3)nc2n(CCC)c1=O
15 | 7.00 | 6.66 | 7.11 | 0.7 | 2 | CCCn1c(=O)c2nc(-c3cnn(CCCc4ccccc4)c3)[nH]c2n(CCC)c1=O
16 | 7.72 | 6.92 | 6.24 | – | – | CCn1c(=O)c2[nH]c(-c3cnn(Cc4ccccc4)c3)nc2n(CC)c1=O

Row | pKi (Adenosine receptor A2b) | pKi (Adenosine receptor A2a) | pKi (Adenosine receptor A1) | Ratio Ki [1] | Ratio Ki [2] | SMILES
17 | 7.44 | 7.18 | 7.32 | – | – | CCCn1c(=O)c2[nH]c(-c3cnn(Cc4cccc(C)c4)c3)nc2n(CCC)c1=O
18 | 7.40 | 7.10 | 7.42 | – | – | CCCn1c(=O)c2[nH]c(-c3cnn(Cc4ccc(C)cc4)c3)nc2n(CCC)c1=O
19 | 5.43 | – | – | – | – | CCCn1c(=O)c2[nH]c(-c3cc(C)nn3C)nc2n(CCC)c1=O
20 | 7.36 | 6.34 | 6.41 | – | – | CCCn1c(=O)c2[nH]c(-c3cnn(Cc4cccc(C)c4F)c3)nc2n(CCC)c1=O
21 | 6.01 | 6.05 | 5.85 | – | – | CCCCn1c(=O)c2[nH]c(-c3cnn(Cc4ccccc4)c3)nc2n(CCCC)c1=O
22 | 7.43 | 7.21 | 7.15 | – | – | CCCn1c(=O)c2[nH]c(-c3cnn(Cc4ccc(OC)cc4)c3)nc2n(CCC)c1=O
23 | 7.43 | 6.85 | 7.23 | – | – | CCCn1c(=O)c2[nH]c(-c3cnn(Cc4ccccc4OC)c3)nc2n(CCC)c1=O
24 | 5.96 | – | – | – | – | CCCn1c(=O)c2nc(-c3ccnn3-c3ccccc3)[nH]c2n(CCC)c1=O
25 | – | – | – | 2 | 4 | CCCn1c(=O)c2nc(-c3cnn(Cc4ccccc4OC)c3)[nH]c2n(CCC)c1=O
26 | 7.66 | 6.92 | 7.64 | – | – | CCCn1c(=O)c2[nH]c(-c3cnn(Cc4ccc(F)cc4)c3)nc2n(CCC)c1=O
27 | 5.32 | – | – | – | – | CCCn1c(=O)c2[nH]c(-c3cnn(Cc4cc(F)ccc4Cl)c3)nc2n(CCC)c1=O
28 | 7.48 | 7.29 | 7.66 | – | – | CCCn1c(=O)c2[nH]c(-c3cnn(Cc4ccccc4C)c3)nc2n(CCC)c1=O
29 | 7.54 | 7.15 | 6.72 | – | – | CCCn1c(=O)c2[nH]c(-c3cnn(Cc4cc(Cl)ccc4Cl)c3)nc2n(CCC)c1=O
30 | – | – | – | 0.6 | 2 | CCCn1c(=O)c2nc(-c3cnn(Cc4ccccc4C)c3)[nH]c2n(CCC)c1=O
31 | – | – | – | 0.6 | 2 | CCCn1c(=O)c2nc(-c3cnn(Cc4ccccc4F)c3)[nH]c2n(CCC)c1=O

Continued, compound first:

Row | SMILES | pKi (Adenosine receptor A2b) | pKi (Adenosine receptor A2a) | pKi (Adenosine receptor A1) | Ratio Ki [1] | Ratio Ki [2]
32 | CC(C)Cn1c(=O)c2[nH]c(-c3cnn(Cc4cccc(F)c4)c3)nc2n(CC(C)C)c1=O | 6.00 | 5.89 | 6.08 | – | –
33 | CC(C)Cn1c(=O)c2[nH]c(-c3cnn(Cc4cccc(C(F)(F)F)c4)c3)nc2n(CC(C)C)c1=O | 6.52 | 5.37 | 5.51 | – | –
34 | CCCn1c(=O)c2nc(-n3cccn3)[nH]c2n(CCC)c1=O | < 5.24 | – | – | – | –
35 | CCCn1c(=O)c2nc(-c3cnn(Cc4cccc(OC)c4)c3)[nH]c2n(CCC)c1=O | 7.47 | 7.15 | 7.47 | 1 | 2
36 | CCCn1c(=O)c2[nH]c(-c3cnn(Cc4cc(C(F)(F)F)cc(C(F)(F)F)c4)c3)nc2n(CCC)c1=O | 6.46 | – | – | – | –
37 | CCCn1c(=O)c2nc(-c3cnn(Cc4ccc(C(F)(F)F)cc4)c3)[nH]c2n(CCC)c1=O | 7.70 | 6.82 | 7.39 | 2 | 7
38 | CCCn1c(=O)c2nc(-c3cnn(Cc4ccc(C)cc4)c3)[nH]c2n(CCC)c1=O | – | – | – | 1 | 2
39 | CCCn1c(=O)c2nc(-c3cnn(Cc4cccc(Cl)c4)c3)[nH]c2n(CCC)c1=O | 7.74 | 7.10 | 7.51 | 2 | 4
40 | CCCn1c(=O)c2nc(-c3cnn(Cc4cccc(C)c4)c3)[nH]c2n(CCC)c1=O | – | – | – | 1 | 2
41 | CCn1c(=O)c2nc(-c3cnn(Cc4cccc(F)c4)c3)[nH]c2n(CC)c1=O | 8.30 | 6.54 | 6.42 | 76 | 58
42 | CCCn1c(=O)c2nc(-c3cnn(Cc4ccc(Cl)c(C(F)(F)F)c4)c3)[nH]c2n(CCC)c1=O | 6.70 | – | – | – | –
43 | CC(C)Cn1c(=O)c2[nH]c(-c3cnn(Cc4ccccc4)c3)nc2n(CC(C)C)c1=O | 5.90 | 5.96 | 6.21 | – | –
44 | CCCn1c(=O)c2nc(-c3cnn(Cc4ccc(OC)cc4)c3)[nH]c2n(CCC)c1=O | – | – | – | 2 | 1
45 | CCCn1c(=O)c2nc(-c3cnn(Cc4c(F)cccc4F)c3)[nH]c2n(CCC)c1=O | 6.41 | – | – | – | –
46 | Cn1c(=O)c2[nH]c(-c3cnn(Cc4cccc(F)c4)c3)nc2n(C)c1=O | 7.57 | 6.70 | 6.34 | 17 | 7
47 | CCCn1c(=O)c2nc(-c3cnn(Cc4ccc(F)cc4)c3)[nH]c2n(CCC)c1=O | – | – | – | 1 | 5

Row | SMILES | pKi (Adenosine receptor A2b) | pKi (Adenosine receptor A2a) | pKi (Adenosine receptor A1) | Ratio Ki [1] | Ratio Ki [2]
48 | CCCn1c(=O)c2nc(-c3cc(C)nn3CC)[nH]c2n(CCC)c1=O | 5.68 | – | – | – | –
49 | CCCn1c(=O)[nH]c(=O)c2[nH]cnc21 [ENPROFYLLINE] | – | – | 4.38 | – | –
50 | CCn1c(=O)c2nc(-c3cnn(Cc4ccccc4)c3)[nH]c2n(CC)c1=O | – | – | – | 30 | 6
51 | CC(C)Cn1c(=O)c2nc(-c3cnn(Cc4ccccc4)c3)[nH]c2n(CC(C)C)c1=O | – | – | – | 0.5 | 1
52 | Cn1c(=O)c2nc(-c3cnn(Cc4ccccc4)c3)[nH]c2n(C)c1=O | 5.64 | 5.46 | < 5.22 | 2 | 1
53 | CC(C)Cn1c(=O)c2nc(-c3cnn(Cc4cccc(C(F)(F)F)c4)c3)[nH]c2n(CC(C)C)c1=O | – | – | – | 10 | 14
54 | CCCCn1c(=O)c2nc(-c3cnn(Cc4ccccc4)c3)[nH]c2n(CCCC)c1=O | – | – | – | 1 | 1
55 | CCCn1c(=O)c2nc(-c3cnn(Cc4cccc(C)c4F)c3)[nH]c2n(CCC)c1=O | – | – | – | 9 | 10
56 | CCCn1c(=O)c2nc(-c3cnn(Cc4ccc(OC)c(C(F)(F)F)c4)c3)[nH]c2n(CCC)c1=O | 6.39 | – | – | – | –
57 | CC(C)Cn1c(=O)c2nc(-c3cnn(Cc4cccc(F)c4)c3)[nH]c2n(CC(C)C)c1=O | – | – | – | 1 | 1
58 | CCCn1c(=O)c2[nH]c(-c3cnn(Cc4cc(C(F)(F)F)cc(Cl)c4F)c3)nc2n(CCC)c1=O | 6.44 | – | – | – | –
59 | CCCn1c(=O)c2nc(-c3cnn(Cc4ccccc4C(F)(F)F)c3)[nH]c2n(CCC)c1=O | – | – | – | 1 | 6
60 | CCCn1c(=O)c2nc(-c3cnn(Cc4cc(Cl)ccc4Cl)c3)[nH]c2n(CCC)c1=O | – | – | – | 6 | 2
61 | CCCn1c(=O)c2nc(-c3cnn(Cc4ccc(F)cc4F)c3)[nH]c2n(CCC)c1=O | 6.15 | – | – | – | –
62 | CCCn1c(=O)c2nc(-c3cnn(Cc4c(F)cc(F)cc4F)c3)[nH]c2n(CCC)c1=O | 6.19 | – | – | – | –
